Key:
[1] = Rest activity (stability) of completely dissolved natamycin in aqueous SDS solution over time, HPLC; format: physicochemical; settings: 1000 ppm natamycin added, 1% SDS
Protocol: This method was used to analyze the amount of
active natamycin in a water-based mixture of several components. The method was HPLC based using the International Dairy Federation (Provisional ADF Standard 140, 1987) with a Lichrosorb RP 8 column. Detection was by UV at 303 nm with a range of 0.1-4 mg/L with an injection volume of 20 μl. Sample preparation was carried out by weighing 2 gram prepared formulation with an accuracy of 1 mgram in a measuring flask. 4 ml demineralized water (demiwater) was added and the mixture was stirred for 15 minutes to get a homogeneous suspension. Subsequently 80 ml ethanol was added and the mixture was stirred for 10 minutes. After ultrasonic treatment the solution was filled up to 100 ml with de-minaralized water and then diluted and/or filtered (0.2 μm) before injecting. The amount of active natamycin was calculated as ppm against a series of standards of known natamycin concentrations.
The mixtures were made by adding 2 gram Delvocid (Natamycin) together with 50 gram 20% SDS solution and eventually additives to a final weight of 1000 gram with demineralised (=demi) water.
This crude mixture was mixed for 5 minutes to obtain a homogeneous mixture and accordingly adjusted to pH 4-6 with ammonia.
The obtained formulations with an added amount of active natamycin of 1000 ppm were stored at 18° C. in a closed pot in the dark.
The prepared mixtures were measured over time for the amount of active natamycin using the analytical method as described hereinabove.
The mixture as described in Example 1 was adjusted to pH=4.0 or pH=6.0 and the natamycin activity was measured over time.
The mixture as described in Example 1 is combined with 1000 ppm di-sodium-EDTA, adjusted to pH 6.0 and the natamycin activity was measured over time.

[2] = Visual solubility of polyene fungicides in water and water + SDS; format: physicochemical; settings: soluble if mixture is clear
Protocol: Mixtures are made with several polyene fungicides in several concentrations The used polyene fungicides are nystatin, amphotericin and natamycin. The solubility rate is measured visually of the polyene fungicides in demineralized water as such or according to example 1 in combination with SDS to a final SDS concentration of 1% (w/w). It is soluble if a mixture is clear after one minute stirring at room temperature.

Row | SMILES | Rest activity of completely dissolved natamycin over time ([1]; pH = 4.0, 3 weeks, stored at 18° C. in the dark) [ppm] | Rest activity of completely dissolved natamycin over time ([1]; pH = 4.0, 9 weeks, stored at 18° C. in the dark) [ppm] | Rest activity of completely dissolved natamycin over time ([1]; pH = 4.0, 1 day, stored at 18° C. in the dark) [ppm] | Rest activity of completely dissolved natamycin over time ([1]; pH = 6.0 + Na2EDTA (1000 ppm di-sodium-EDTA), 3 weeks, 18° C. dark) [ppm] | Rest activity of completely dissolved natamycin over time ([1]; pH = 6.0 + Na2EDTA (1000 ppm di-sodium-EDTA), 9 weeks, 18° C. dark) [ppm] | Rest activity of completely dissolved natamycin over time ([1]; pH = 6.0 + Na2EDTA (1000 ppm di-sodium-EDTA), 1 day, 18° C. dark) [ppm] | Rest activity of completely dissolved natamycin over time ([1]; pH = 6.0, 3 weeks, stored at 18° C. in the dark) [ppm] | Rest activity of completely dissolved natamycin over time ([1]; pH = 6.0, 9 weeks, stored at 18° C. in the dark) [ppm] | Rest activity of completely dissolved natamycin over time ([1]; pH = 6.0, 1 day, stored at 18° C. in the dark) [ppm] | Solublized after 1 minute stirring at room temperature ([2]; 250 ppm polyene fungicide in final mixture, solvent 1% (w/w) SDS) | Solublized after 1 minute stirring at room temperature ([2]; 250 ppm polyene fungicide in final mixture, solvent Demi-Water) | Solublized after 1 minute stirring at room temperature ([2]; 500 ppm polyene fungicide in final mixture, solvent 1% (w/w) SDS) | Solublized after 1 minute stirring at room temperature ([2]; 1000 ppm polyene fungicide in final mixture, solvent 1% (w/w) SDS)
1 | C[C@@H]1C/C=C/C=C/C=C/C=C/[C@H](O[C@@H]2O[C@H](C)[C@@H](O)[C@H](N)[C@@H]2O)C[C@@H]2O[C@](O)(C[C@@H](O)C[C@H]3O[C@@H]3/C=C/C(=O)O1)C[C@H](O)[C@H]2C(=O)O [Natamycin, natamycin] | <0.1 | <0.1 | 672 | 805 | 560 | 1000 | 444 | 57 | 988 |  |  |  | 
2 | C[C@@H]1[C@H](O)[C@@H](C)/C=C/C=C/CC/C=C/C=C/C=C/C=C/C(O[C@H]2O[C@H](C)[C@@H](O)[C@H](N)[C@@H]2O)CC2O[C@](O)(CC(O)C(O)CCC(O)CC(O)CC(O)CC(=O)O[C@H]1C)CC(O)C2C(=O)O (stereo partly shown) [Nystatin] |  |  |  |  |  |  |  |  |  | Yes | No | Almost | No
